{"source": "paper PMC10261210", "about": "(Cancer Chemotherapy and Pharmacology, 2023)", "key": {"[1]": {"test_system": "patients with relapsed or refractory advanced solid tumors", "test": "3 + 3 dose escalation: DLT, MTD, RP2D", "format": "in vivo", "settings": "for MTD: 28-day cycles; for recommended phase 2 dose (RP2D): human, in vivo", "text": "Prior to the initiation of QW dose escalation, the initial cycle length of 22 days was changed to 28 days by protocol amendment to improve clinical feasibility and better facilitate future combination studies. Patients enrolled prior to this protocol amendment in an ongoing Q2D dose escalation cohort continued on the 22-day cycle schedule until the cohort was full and all patients had been evaluated for dose-limiting toxicity (DLT). For both Q2D and QW regimens, dose escalation progressed according to the incidence of DLT in the first treatment cycle (either 22 days or 28 days). […] The MTD was defined as the highest dose level that generated DLT in 0/3 or 1/6 patients. On a case-by-case basis, the sponsor in collaboration with the principal investigators determined if intrapatient dose escalation was appropriate. Patients who had any dose reductions were not permitted to dose escalate.\nThe starting dose for the Q2D dose escalation phase was 20 mg, which was equivalent to one-tenth of the highest non-severely toxic dose (HNSTD) established in monkey toxicology studies. Dose escalation included planned dose levels of 40 mg, 80 mg, 135 mg, 200 mg, and 280 mg. […] In addition, a seventh Q2D cohort was to enroll sufficient patients (approximately 16) with any advanced solid tumor (excluding lymphoma) to ensure that 12 patients completed protocol-specified dosing and PK assessments scheduled during cycle 1.\nThe study was initially designed to investigate a Q2D schedule. Subsequently, a protocol amendment introduced planned QW dose escalation cohorts. The alteration in the dosing regimen from Q2D to QW was expected to reduce drug accumulation and increase Cmax while maintaining similar steady-state AUC. In addition, it was hypothesized that the increased Cmax might lead to a higher degree of pathway inhibition for a window of time within the dosing interval, without compromising overall dose density. Planned QW doses to be administered on days 1, 8, 15, and 22 of a 28-day cycle were a starting dose of 400 mg, followed by dose level increases of 200 mg (i.e., doses of 600 mg, 800 mg, and 1000 mg) in each subsequent cohort until the MTD/RP2D was reached."}, "[2]": {"test": "plasma pharmacokinetics (LC–MS/MS, noncompartmental analysis)", "format": "in vivo, human", "settings": "for Tmax / AUC / Cmax / half-life: human, plasma; for Cmax: read-out: Cmax, geometric mean (%CV); for half-life: read-out: t1/2z, mean (range) (converted)", "method": "In addition, for patients on Q2D schedules, predose or trough samples were collected on days 9 and 15 (Q2D dosing) or days 8 and 15 (QW dosing) to evaluate time to steady state. […] Plasma concentration–time analysis was performed using noncompartmental analysis. The plasma PK parameters were estimated using a validated version of Phoenix WinNonlin software (Version 6.3 or above, Pharsight Corporation, Raleigh, NC). Terminal half-life was calculated based on the equation: t1/2 = ln2/kel (kel = elimination rate constant determined by linear regression analysis of selected time points in the apparent terminal phase of the log plasma concentration versus time curve)."}, "[3]": {"settings": "po, 400 mg, 400 mg QW oral, cycle 1 day 22, plasma, n 3"}, "[4]": {"settings": "po, 600 mg, 600 mg QW oral, cycle 1 day 22, plasma, n 20"}, "[5]": {"settings": "po, 800 mg, 800 mg QW oral, cycle 1 day 22, plasma, n 3"}}, "note": "“Also recorded” adds a separate entry of the source. Read-outs that look alike come from different tables or passages of the source.", "data": [{"compound": "C[C@@H](NC(=O)c1ncnc(N)c1Cl)c1ncc(C(=O)Nc2cc(C(F)(F)F)c(Cl)cn2)s1", "note": "[tovorafenib]", "values": [{"measurement": "MTD", "setting": "[1]; Q2D", "result": 200, "unit": "mg"}, {"measurement": "MTD", "setting": "[1]; QW", "result": 600, "unit": "mg"}, {"measurement": "recommended phase 2 dose (RP2D)", "setting": "[1]", "result": 200, "unit": "mg"}, {"measurement": "recommended phase 2 dose (RP2D)", "setting": "[1]; 28 days", "result": 600, "unit": "mg"}, {"measurement": "dose dependence of steady-state AUC48", "setting": "[2]; 20 mg to 280 mg Q2D", "result": "approximately dose-proportional"}, {"measurement": "dose dependence of steady-state exposure (AUC168)", "setting": "[2]; 400 mg to 800 mg QW", "result": "approximately dose-proportional"}, {"measurement": "power model coefficient, dose versus steady-state AUC168", "setting": "[2]; 400 mg to 800 mg QW, cycle 1 day 22, 95% CI 0.55–2.04", "result": 1.30}, {"measurement": "geometric mean Rauc", "setting": "[2]; Q2D dosing regimen at 200 mg", "result": "~ 2.55"}, {"measurement": "Tmax", "setting": "[2]; oral, post-dose, Q2D and QW, read-out: overall median Tmax", "result": "2 to 4", "unit": "h"}, {"measurement": "AUC", "setting": "[2]; po, 20 mg, 20 mg Q2D oral, cycle 1 day 21, plasma, n 3, read-out: AUC48, geometric mean (%CV)", "result": 10.4, "unit": "µg·h/mL"}, {"measurement": "Cmax", "setting": "[2]; po, 20 mg, 20 mg Q2D oral, cycle 1 day 21, plasma, n 3", "result": 302, "unit": "ng/mL"}, {"measurement": "Tmax", "setting": "[2]; po, 20 mg, 20 mg Q2D oral, cycle 1 day 21, plasma, n 3, read-out: tmax, median (min, max)", "result": 2, "unit": "h"}, {"measurement": "AUC", "setting": "[2]; po, 40 mg, 40 mg Q2D oral, cycle 1 day 21, plasma, n 2, read-out: AUC48, geometric mean (%CV)", "result": 20.9, "unit": "µg·h/mL"}, {"measurement": "Cmax", "setting": "[2]; po, 40 mg, 40 mg Q2D oral, cycle 1 day 21, plasma, n 2", "result": 760, "unit": "ng/mL"}, {"measurement": "Tmax", "setting": "[2]; po, 40 mg, 40 mg Q2D oral, cycle 1 day 21, plasma, n 2, read-out: tmax, median (min, max)", "result": 3, "unit": "h"}, {"measurement": "AUC", "setting": "[2]; po, 80 mg, 80 mg Q2D oral, cycle 1 day 21, plasma, n 3, read-out: AUC48, geometric mean (%CV)", "result": 42.7, "unit": "µg·h/mL"}, {"measurement": "Cmax", "setting": "[2]; po, 80 mg, 80 mg Q2D oral, cycle 1 day 21, plasma, n 3", "result": 2040, "unit": "ng/mL"}, {"measurement": "Tmax", "setting": "[2]; po, 80 mg, 80 mg Q2D oral, cycle 1 day 21, plasma, n 3, read-out: tmax, median (min, max)", "result": 4, "unit": "h"}, {"measurement": "AUC", "setting": "[2]; po, 135 mg, 135 mg Q2D oral, cycle 1 day 21, plasma, n 3, read-out: AUC48, geometric mean (%CV)", "result": 96.8, "unit": "µg·h/mL"}, {"measurement": "Cmax", "setting": "[2]; po, 135 mg, 135 mg Q2D oral, cycle 1 day 21, plasma, n 3", "result": 3320, "unit": "ng/mL"}, {"measurement": "Tmax", "setting": "[2]; po, 135 mg, 135 mg Q2D oral, cycle 1 day 21, plasma, n 3, read-out: tmax, median (min, max)", "result": 2, "unit": "h"}, {"measurement": "AUC", "setting": "[2]; po, 200 mg, 200 mg (n=7) Q2D oral, cycle 1 day 21, plasma, n 6, read-out: AUC48, geometric mean (%CV)", "result": 118, "unit": "µg·h/mL"}, {"measurement": "Cmax", "setting": "[2]; po, 200 mg, 200 mg (n=7) Q2D oral, cycle 1 day 21, plasma, n 6", "result": 3810, "unit": "ng/mL"}, {"measurement": "Tmax", "setting": "[2]; po, 200 mg, 200 mg (n=7) Q2D oral, cycle 1 day 21, plasma, n 6, read-out: tmax, median (min, max)", "result": 3, "unit": "h"}, {"measurement": "AUC", "setting": "[2]; po, 200 mg, 200 mg (n=23; PK expansion cohort and 28-day cycle cohort) Q2D oral, cycle 1 day 21, plasma, n 14, read-out: AUC48, geometric mean (%CV)", "result": 127, "unit": "µg·h/mL"}, {"measurement": "Cmax", "setting": "[2]; po, 200 mg, 200 mg (n=23; PK expansion cohort and 28-day cycle cohort) Q2D oral, cycle 1 day 21, plasma, n 14", "result": 3680, "unit": "ng/mL"}, {"measurement": "Tmax", "setting": "[2]; po, 200 mg, 200 mg (n=23; PK expansion cohort and 28-day cycle cohort) Q2D oral, cycle 1 day 21, plasma, n 14, read-out: tmax, median (min, max)", "result": 2, "unit": "h"}, {"measurement": "AUC", "setting": "[2]; po, 280 mg, 280 mg Q2D oral, cycle 1 day 21, plasma, n 4, read-out: AUC48, geometric mean (%CV)", "result": 155, "unit": "µg·h/mL"}, {"measurement": "Cmax", "setting": "[2]; po, 280 mg, 280 mg Q2D oral, cycle 1 day 21, plasma, n 4", "result": 4060, "unit": "ng/mL"}, {"measurement": "Tmax", "setting": "[2]; po, 280 mg, 280 mg Q2D oral, cycle 1 day 21, plasma, n 4, read-out: tmax, median (min, max)", "result": 3, "unit": "h"}, {"measurement": "AUC", "setting": "[2]; po, 400 mg, 400 mg QW oral, cycle 1 day 22, plasma, n 3, read-out: AUC168, geometric mean (%CV)", "result": 193, "unit": "µg·h/mL"}, {"measurement": "Cmax", "setting": "[2]; [3]", "result": 3140, "unit": "ng/mL"}, {"measurement": "Tmax", "setting": "[2]; po, 400 mg, 400 mg QW oral, cycle 1 day 22, plasma, n 3, read-out: Tmax, median (min, max)", "result": 3, "unit": "h"}, {"measurement": "half-life", "setting": "[2]; [3]", "result": 52, "unit": "h"}, {"measurement": "AUC", "setting": "[2]; po, 600 mg, 600 mg QW oral, cycle 1 day 22, plasma, n 20, read-out: AUC168, geometric mean (%CV)", "result": 330, "unit": "µg·h/mL"}, {"measurement": "Cmax", "setting": "[2]; [4]", "result": 5650, "unit": "ng/mL"}, {"measurement": "Tmax", "setting": "[2]; po, 600 mg, 600 mg QW oral, cycle 1 day 22, plasma, n 20, read-out: Tmax, median (min, max)", "result": 3, "unit": "h"}, {"measurement": "half-life", "setting": "[2]; [4]", "result": "~70", "unit": "h"}, {"measurement": "AUC", "setting": "[2]; po, 800 mg, 800 mg QW oral, cycle 1 day 22, plasma, n 3, read-out: AUC168, geometric mean (%CV)", "result": 473, "unit": "µg·h/mL"}, {"measurement": "Cmax", "setting": "[2]; [5]", "result": 6460, "unit": "ng/mL"}, {"measurement": "Tmax", "setting": "[2]; po, 800 mg, 800 mg QW oral, cycle 1 day 22, plasma, n 3, read-out: Tmax, median (min, max)", "result": 4, "unit": "h"}, {"measurement": "half-life", "setting": "[2]; [5]", "result": 68.1, "unit": "h"}, {"measurement": "accumulation in systemic circulation (day 22 AUC168 over day 1 AUC168)", "setting": "[2]; repeated QW dosing, 400–800 mg", "result": "minimal accumulation; also recorded: Minimal to no apparent accumulation"}]}]}
